SMILES strings stand for the structures.

`CC(=O)N(C)[C@@H]1CC[C@@H](NC(=O)Nc2nc(C)cs2)[C@H](CN2CCC[C@@H](Cc3ccc(F)cc3)C2)C1` [Example 1, N-{(3S,4R)-3-[3S-(4-Fluorobenzyl)-piperidin-1-ylmethyl]-4-[3-(4-methyl-thiazol-2-yl)-ureido]-(R)-cyclohexyl}-N-methyl-acetamide] registered a melting point of 191 °C.

The values are drawn from patent publication US7351720B2, “N-ureidoalkyl-piperidines as modulators of chemokine receptor activity” (Bristol-Myers Squibb Company, priority 2003, dated 2008).
